In patent US11312676B2, “Small molecule stimulators of steroid receptor coactivator proteins and their use in the treatment of cancer” (BAYLOR COLLEGE OF MEDICINE, priority 2014, dated 2022):

Assays:
Assay type in all cases: cell-based
[1] = tested on: mouse primary hepatocytes; assay: MTS cell viability assay, mouse primary hepatocytes; conditions: 48 hours
Experimental: (§1) Cell lines were maintained in DMEM (HeLa, MCF-7, HepG2), RPMI 1640 (H1299), or DMEM/F12 (PC-3) supplemented with 10% fetal calf serum, penicillin and streptomycin (100 U/ml). Primary mouse hepatocytes were isolated and cultured. Mouse embryonic fibroblasts (MEF) were cultured in DMEM. All cells were maintained at 37° C. under 5% CO2.
(§2) Cells were seeded in 96-well plates and allowed to reach 70% to 80% confluence. After indicated compound treatments, relative numbers of viable cells were measured by MTS assay using the Cell Titer 96 Aqueous One Solution Cell Proliferation Assay (Promega).

[2] = tested on: SRC-1, SRC-2 and SRC-3 protein levels; assay: Immunoblot of SRC protein levels in HeLa cells; conditions: 24 hours
Experimental: For Western blotting, cells were harvested and lysed in lysis buffer (50 mM Tris, pH 8.0, 150 mM NaCl, 10% glycerol, 0.5% NP40, protease and phosphatase inhibitor) and then centrifuged for 15 min at 14000 rpm at 4° C. After total cellular protein concentration was determined by Bradford analysis (Bio-Rad, Hercules, Calif.), protein lysates were loaded onto and resolved by sodium dodecyl sulfate-polyacrylamide gel electrophoresis (SDS-PAGE) and transferred to PVDF membranes (BioRad) which were blocked and incubated with indicated antibodies. For immunoprecipitation, 10 μg of plasmid encoding FLAG-SRC-3 was transfected into HeLa cells with 90% confluence in one 10 cm plate with lipofectamine 2000 (Invitrogen). Twenty-four hours after transfection, the cells were treated with MCB-613 for one hour and lysed with lysis buffer (25 mM Tris-Cl pH7.5, 150 mM NaCl, 5% glycerol, 1 mM EDTA, 1% Triton X-100, protease and phosphatase inhibitor) at 4° C. After a 30-second sonication, the lysate was cleared by centrifugation at 14000 rpm at 4° C. for 15 minutes and was incubated with anti-Flag-M2 agarose affinity gel (Sigma) for four hours. The agarose gel was washed four times with washing buffer (25 mM Tris pH 8.0, 150 mM NaCl, 1 mM EDTA, 1% Triton X-100) and resuspended with SDS loading buffer for Western blotting.

intracellular ROS levels = assay: Measurement of reactive oxygen species with CM-H2DCFDA; conditions: 30 minutes treatment
Experimental: Cells were loaded with 10 μM general ROS indicator CM-H2DCFDA in serum free DMEM for 30 minutes at 37° C. in the dark. After a 5-minute recovery in complete DMEM, cells were treated with indicated concentrations of MCB-613 for 30 minutes, then fixed and examined by fluorescence microscopy.

H1299 (lung) cells = assay: MTS cell viability assay, H1299; conditions: H1299, 48 hours
Experimental: as §1, §2

MEF cells = assay: MTS cell viability assay, mouse embryonic fibroblasts; conditions: 48 hours
Experimental: as §1, §2

Structure (SMILES): CCC1CC(=Cc2cccnc2)C(=O)C(=Cc2cccnc2)C1 (centres unmarked) [MCB-613, 4-Ethyl-2,6-bis-pyridin-3-ylmethylene-cyclohexanone]
- cytotoxicity to normal cells [1]: resistant
- SRC-1, SRC-2 and SRC-3 protein levels [2]: decreases
- intracellular ROS levels (intracellular ROS levels): rapid and marked increase
- cytotoxicity, cell viability (H1299 (lung) cells): efficiently kill
- cytotoxicity to normal cells (MEF cells): resistant
